IC50 data for 6 compounds are collected here from US5360907A, “Pyrrolo[3,2-B]pyridinylalkyl benzamide derivatives” (G.D. Searle & Co., priority 1993, dated 1994).

Molecules are shown by their SMILES.

One assay deals with T1, PAF receptor (Homo sapiens, UniProt P25105).
T1 construct: human platelet membrane preparation; tissue Lifesource, Inc. (Glenview, Ill.); host or cells: human packed platelets (membrane preparation)
T1 sequence (P25105 whole entry): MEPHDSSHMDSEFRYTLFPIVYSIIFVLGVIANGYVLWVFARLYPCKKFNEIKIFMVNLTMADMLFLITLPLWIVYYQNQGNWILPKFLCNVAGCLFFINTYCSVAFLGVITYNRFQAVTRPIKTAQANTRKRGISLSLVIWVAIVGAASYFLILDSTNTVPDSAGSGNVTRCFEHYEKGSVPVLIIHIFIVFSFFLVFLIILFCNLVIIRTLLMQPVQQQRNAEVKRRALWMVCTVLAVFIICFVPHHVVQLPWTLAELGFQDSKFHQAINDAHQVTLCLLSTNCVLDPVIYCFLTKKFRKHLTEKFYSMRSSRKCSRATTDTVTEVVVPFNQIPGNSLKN
Kind of assay: Assay A: Human Platelet Receptor Binding (inhibition of specific [^3 H]PAF binding to human platelet membrane preparation). As to conditions: 0.75 nM [^3 H]PAF, human platelet membranes, 30 minutes at 24° C. The protocol: Compounds of the invention were evaluated for their ability to inhibit specific binding of [^3 H]PAF to human platelet membrane preparation. Human packed platelets were obtained from Lifesource, Inc. (Glenview, Ill.) and washed 3 times with 10 mM Trizma pH 7.0, 2 mM EDTA (dipotassium salt), 150 mM KCl and then once with 10 mM Trizma 7.4, 20 mM CaCl2. The platelets were broken by freezing in a dry ice-ethanol bath, followed by thawing in 24° C. water baths. The preparation was centrifuged (40,000×g, 20 minutes, 4'C) and the pellet suspended in 10 mM Trizma 7.4, 20 mM CaCl2, 5 mg/ml human albumin. Protein concentration in the platelet membrane preparation was determined by the Lowry method [O. H. Lowry et al., J. Biol. Chem., 193, 265-275 (1951)]. Aliquots of the membrane preparation were stored at -70° C. Each preparation was characterized for PAF receptor number and dissociation constant (Kd). In binding assays 5 μl of test compound, solubilized in DMSO, was added to polypropylene tubes along with 0.75 nM [^3 H]PAF and 200 mcl [0.075 nM] of membranes and 95 μl 10 mM Trizma 7.4, 20 mM CaCl2, 5 mg/ml human albumin. Tubes were incubated for 30 minutes at 24° C. The incubation was terminated by adding 4 ml of ice-cold 10 mM Trizma pH 7.4, 20 mM CaCl2 and 20 mg/ml BSA prior to vacuum filtration using Whatman GF/C filters. Filters were prepared and counted for a scintillation counter. All DPM values were corrected for background and isotope decay. Triplicate determinations for single doses were averaged. The amount of non-specific binding was subtracted from all dose averages, giving an amount of specific binding in all cases. The IC50 values for the compounds of the invention were determined by the Allfit program using percent displacement data. (Allfit is a `basic` computer program for simultaneous curve fitting of a family of signoidal dose-response curves using the four parameter logistic equation.) Results are shown in Table I.
What is called IC50 is the concentration that gives 50% inhibition. In turn, `COc1cc(Cn2ccc3ncccc32)ccc1C(=O)N(C(C)C)C1CCCCC1` [Example 3, N-cyclohexyl-2-methoxy-N-(1-methylethyl)-4-(1H-pyrrolo[3,2-b]pyridin-1-ylmethyl)benzamide] gave a concentration for half-maximal inhibition (IC50) of 2 nM.
On the same count and under the same terms, the figure for `Cc1cc(C(=O)N(C2CCCCC2)C2CCCC2)ccc1Cn1ccc2ncccc21` [Example 6, N-cyclohexyl-N-cyclopentyl-3-methyl-4-(1H-pyrrolo[3,2-b]pyridin-1-ylmethyl)benzamide] is 39 nM; for `CC(C)N(C(=O)c1ccc(Cn2ccc3ncccc32)c(Br)c1)C1CCCCC1` [Example 7, 3-bromo-N-cyclohexyl-N-(1-methylethyl)-4-(1H-pyrrolo[3,2-b]pyridin-1-ylmethyl)benzamide] it is 8 nM; for `COc1cc(Cn2ccc3ncccc32)ccc1C(=O)N(C1CCCCC1)C1CCC1` [Example 4, N-cyclobutyl-N-cyclohexyl-2-methoxy-4-(1H-pyrrolo[3,2-b]pyridin-1-ylmethyl)benzamide] it is 7 nM.
On the same count and under the same terms, the figure for `COc1cc(Cn2ccc3ncccc32)ccc1C(=O)N(C1CCCC1)C1CC(C)CC(C)C1` (stereo not shown) [Example 5, N-cyclopentyl-N-(3,5-dimethylcyclohexyl)-2-methoxy-4-(1H-pyrrolo[3,2-b]pyridin-1-ylmethyl)benzamide] is 15 nM; for `COc1cc(C(=O)N(C(C)C)C2CCCCC2)ccc1Cn1ccc2ncccc21` [Example 1, N-cyclohexyl-3-methoxy-N-(1-methylethyl)-4-(1H-pyrrolo[3,2-b]pyridin-1-ylmethyl)benzamide] it is 38 nM.

Another assay has as its system human platelets. Briefly: Assay B: Human Platelet Aggregation Inhibition (PAF-induced aggregation in human platelet-rich plasma). The assay is classed as cell-based. As to conditions: 37°. How it is done:
Compounds of the invention were evaluated for their ability to inhibit PAF-induced aggregation of human platelets in a human-platelet-rich plasma. Venous blood was collected from donors who fasted for 8 hours and were instructed not to use antiinflammatory drugs for 2 weeks prior to the blood draw. Blood was collected into syringes containing 0.1 ml of 3.8% [w/v] citrate and centrifuged in polypropylene tubes at 150 xg for 20 minutes at room temperature. The platelet rich plasma [PRP] was collected and let sit for 20 minutes at room temperature. Platelet activating factor [PAF] was diluted in 0.9% NaCl with 0.25% bovine serum albumin. Silicon treated cuvettes with stir bars were placed in the 37° heating block of the platelet aggregometer [Bio/Data Corporation, Platelet Aggregation Profiler, Model PAP-4]. PRP and test compound were added to cuvettes and aggregation monitored for 10-15 seconds at 37° with stirring. PAF was added and aggregation monitored for an additional 3 minutes. Peak aggregation was considered the peak of the first aggregation wave, usually 45-60 seconds after PAF addition. Inhibition of aggregation was determined by the following: 1-[(% aggregation in the presence of compound).div.(% maximal aggregation)]. A log/logit transformation was used to determine half maximal inhibitory concentration of a test compound [IC50 ].
For the compound `COc1cc(C(=O)N(C(C)C)C2CCCCC2)ccc1Cn1ccc2ncccc21` [Example 1, N-cyclohexyl-3-methoxy-N-(1-methylethyl)-4-(1H-pyrrolo[3,2-b]pyridin-1-ylmethyl)benzamide], the IC50 came to 2 nM.
